Results on 39 molecules are retold here after US8642609B2, “Modulators of ATP-binding cassette transporters” (Vertex Pharmaceuticals Incorporated, priority 2003, dated 2014).

SMILES strings stand for the structures.

Broadly, the EC50 is the concentration at which the effect is half-maximal. In general, Emax refers to the maximal effect, on the per cent scale that the assay sets.

This test deals with T1, ΔF508-CFTR (Homo sapiens, UniProt P13569, DEL508-508).
T1 construct: expressed in transfected cells
T1 sequence (P13569 with tags, fused parts or gaps DEL508-508): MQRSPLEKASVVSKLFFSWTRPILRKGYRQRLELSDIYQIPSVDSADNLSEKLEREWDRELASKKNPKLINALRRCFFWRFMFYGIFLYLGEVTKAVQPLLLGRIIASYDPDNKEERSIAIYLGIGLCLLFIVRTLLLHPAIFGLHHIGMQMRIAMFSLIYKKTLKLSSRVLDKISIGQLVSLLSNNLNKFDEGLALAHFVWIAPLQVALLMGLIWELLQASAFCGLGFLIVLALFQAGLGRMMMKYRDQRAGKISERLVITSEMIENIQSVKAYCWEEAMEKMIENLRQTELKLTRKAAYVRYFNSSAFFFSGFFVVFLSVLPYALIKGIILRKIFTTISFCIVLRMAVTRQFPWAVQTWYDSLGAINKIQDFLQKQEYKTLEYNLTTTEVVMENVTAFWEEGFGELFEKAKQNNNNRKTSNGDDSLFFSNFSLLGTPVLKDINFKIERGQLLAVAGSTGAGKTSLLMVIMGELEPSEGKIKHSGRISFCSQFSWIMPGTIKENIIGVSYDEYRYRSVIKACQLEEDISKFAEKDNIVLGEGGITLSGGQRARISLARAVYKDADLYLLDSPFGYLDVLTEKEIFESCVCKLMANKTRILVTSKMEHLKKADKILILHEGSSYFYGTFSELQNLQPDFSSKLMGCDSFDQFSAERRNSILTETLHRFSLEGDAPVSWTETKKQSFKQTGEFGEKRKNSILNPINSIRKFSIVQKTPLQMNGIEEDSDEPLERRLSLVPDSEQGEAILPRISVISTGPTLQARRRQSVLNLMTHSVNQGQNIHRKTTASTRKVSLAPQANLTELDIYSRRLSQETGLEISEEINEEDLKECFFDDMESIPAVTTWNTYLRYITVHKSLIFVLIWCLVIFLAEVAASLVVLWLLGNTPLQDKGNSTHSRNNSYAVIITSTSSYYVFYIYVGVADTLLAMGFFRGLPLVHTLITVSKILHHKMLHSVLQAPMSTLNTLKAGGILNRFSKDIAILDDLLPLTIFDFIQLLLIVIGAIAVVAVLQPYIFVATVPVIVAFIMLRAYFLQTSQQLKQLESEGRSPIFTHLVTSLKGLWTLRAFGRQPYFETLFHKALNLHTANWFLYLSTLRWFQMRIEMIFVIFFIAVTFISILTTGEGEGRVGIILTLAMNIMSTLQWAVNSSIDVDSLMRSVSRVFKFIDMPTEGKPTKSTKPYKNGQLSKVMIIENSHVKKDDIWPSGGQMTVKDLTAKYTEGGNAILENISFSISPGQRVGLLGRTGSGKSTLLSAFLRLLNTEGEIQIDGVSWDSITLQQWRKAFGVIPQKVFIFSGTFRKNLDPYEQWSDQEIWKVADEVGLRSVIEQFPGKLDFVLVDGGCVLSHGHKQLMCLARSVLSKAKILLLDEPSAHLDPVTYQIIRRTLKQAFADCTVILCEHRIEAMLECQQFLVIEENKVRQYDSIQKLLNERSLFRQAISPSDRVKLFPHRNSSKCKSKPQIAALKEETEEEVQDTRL
Description: Membrane potential optical assay (FRET/VIPR), identification of correction compounds. Format: cell-based. The source says: I) Membrane Potential Optical Methods for Assaying ΔF508-CFTR Modulation Properties of Compounds
The optical membrane potential assay utilized voltage-sensitive FRET sensors described by Gonzalez and Tsien (See, Gonzalez, J. E. and R. Y. Tsien (1995) “Voltage sensing by fluorescence resonance energy transfer in single cells” Biophys J 69(4): 1272-80, and Gonzalez, J. E. and R. Y. Tsien (1997) “Improved indicators of cell membrane potential that use fluorescence resonance energy transfer” Chem Biol 4(4): 269-77) in combination with instrumentation for measuring fluorescence changes such as the Voltage/Ion Probe Reader (VIPR) (See, Gonzalez, J. E., K. Oades, et al. (1999) “Cell-based assays and instrumentation for screening ion-channel targets” Drug Discov Today 4(9): 431-439).
These voltage sensitive assays are based on the change in fluorescence resonant energy transfer (FRET) between the membrane-soluble, voltage-sensitive dye, DiSBAC2(3), and a fluorescent phospholipid, CC2-DMPE, which is attached to the outer leaflet of the plasma membrane and acts as a FRET donor. Changes in membrane potential (Vm) cause the negatively charged DiSBAC2(3) to redistribute across the plasma membrane and the amount of energy transfer from CC2-DMPE changes accordingly. The changes in fluorescence emission were monitored using VIPR™ II, which is an integrated liquid handler and fluorescent detector designed to conduct cell-based screens in 96- or 384-well microtiter plates.
Identification of Correction Compounds
To identify small molecules that correct the trafficking defect associated with ΔF508-CFTR; a single-addition HTS assay format was developed. The cells were incubated in serum-free medium for 16 hrs at 37° C. in the presence or absence (negative control) of test compound. As a positive control, cells plated in 384-well plates were incubated for 16 hrs at 27° C. to “temperature-correct” ΔF508-CFTR. The cells were subsequently rinsed 3× with Krebs Ringers solution and loaded with the voltage-sensitive dyes. To activate ΔF508-CFTR, 10 μM forskolin and the CFTR potentiator, genistein (20 μM), were added along with Cl^−-free medium to each well. The addition of Cl^−-free medium promoted Cl^− efflux in response to ΔF508-CFTR activation and the resulting membrane depolarization was optically monitored using the FRET-based voltage-sensor dyes.
NIH3T3 mouse fibroblasts stably expressing ΔF508-CFTR are used for optical measurements of membrane potential. The cells are maintained at 37° C. in 5% CO2 and 90% humidity in Dulbecco's modified Eagle's medium supplemented with 2 mM glutamine, 10% fetal bovine serum, 1×NEAA, β-ME, 1× pen/strep, and 25 mM HEPES in 175 cm^2 culture flasks. For all optical assays, the cells were seeded at 30,000/well in 384-well matrigel-coated plates and cultured for 2 hrs at 37° C. before culturing at 27° C. for 24 hrs. for the potentiator assay. For the correction assays, the cells are cultured at 27° C. or 37° C. with and without compounds for 16-24 hours B) Electrophysiological Assays for assaying ΔF508-CFTR modulation properties of compounds

For the molecule `COc1ccc2nc(C(C)N3CCN(S(=O)(=O)c4ccccc4)CC3)n(C)c(=O)c2c1` (stereo not drawn) [compound 133], the EC50 was in the range of 10 to 25 µM. The Emax (relative efficacy) is 25 to 100%.
For `CC(c1nc2ccccc2c(=O)n1C)N1CCN(S(=O)(=O)c2ccc(-c3ccon3)s2)CC1` (stereo not drawn) [compound 269] the same measures were 25 to 60 µM and below 25%.
In the case of `COc1ccc(S(=O)(=O)N2CCN(C(C)c3nc(N4CCC(C)CC4)c4ccccc4n3)CC2)cc1` (stereo not drawn) [compound 320], the EC50 was below 10 µM. In addition, for the setting “relative efficacy”, the Emax was above 100%.
As for `CC(c1nc2cc(Cl)ccc2c(=O)n1C)N1CCN(C(=O)c2ccc(F)cc2)CC1` (stereo not drawn) [compound 121], the EC50 is 10 to 25 µM. The Emax (relative efficacy) is below 25%.
On to `COc1ccc(S(=O)(=O)N2CCN(C(C)c3nc(N4CCC(O)CC4)c4ccccc4n3)CC2)cc1` (stereo not drawn) [compound 346], for which the EC50 is 25 to 60 µM. Moreover, the Emax (relative efficacy) fell in the range of 25 to 100%.
On to `CC(c1nc2ccc(Cl)cc2c(=O)n1C)N1CCN(S(=O)(=O)c2cccc(Cl)c2)CC1` (stereo not drawn) [compound 64], for which the EC50 lay in the range of 10 to 25 µM. In addition, the Emax (relative efficacy) lay within 25 to 100%.
For `COc1ccc(S(=O)(=O)N2CCN(C(C)c3nc4ccccc4c(=O)n3CC(C)(C)C)CC2)cc1` (stereo not drawn) [compound 332] the same measures were 25 to 60 µM and 25 to 100%.
Turning to `CC(c1nc2cc(Cl)ccc2c(=O)n1C)N1CCN(C(=O)c2cccc(C(F)(F)F)c2)CC1` (stereo not drawn) [compound 101], the EC50 is 10 to 25 µM. The Emax (relative efficacy) lay in the range of 25 to 100%.
Take `COc1ccc(S(=O)(=O)N2CCN(C(C)c3nc(N4CCOCC4)c4ccccc4n3)CC2)cc1` (stereo not drawn) [compound 196]: the EC50 lay in the range of 25 to 60 µM. Moreover, the Emax (relative efficacy) is 25 to 100%.
For `CC(c1nc2ccccc2c(=O)n1C)N1CCN(S(=O)(=O)c2csc3ccccc23)CC1` (stereo not drawn) [compound 272] the same measures were below 10 µM and 25 to 100%.
Consider `CC(=O)N1CCN(C(C)c2nc3ccc(Cl)cc3c(=O)n2C)CC1` (stereo not drawn) [compound 60], for which the EC50 was in the range of 25 to 60 µM. For the same molecule, under “relative efficacy”, the Emax was below 25%.
For `COCCn1c(C(C)N2CCN(S(=O)(=O)c3ccc(Br)cc3)CC2)nc2ccccc2c1=O` (stereo not drawn) [compound 5] the same measures were below 10 µM and above 100%.
In the case of `COc1ccc(S(=O)(=O)N2CCN(C(C)c3nc(N4CCCC4)c4ccccc4n3)CC2)cc1` (stereo not drawn) [compound 333], the EC50 lay within 10 to 25 µM. Further, for the setting “relative efficacy”, the Emax fell in the range of 25 to 100%.
For `COc1ccc(S(=O)(=O)N2CCN(C(C)c3nc(Oc4ccncc4)c4ccccc4n3)CC2)cc1` (stereo not drawn) [compound 297] the same measures were below 10 µM and 25 to 100%.
For `COc1ccc(S(=O)(=O)N2CCN(C(C)c3nc(N4CCSC4)c4ccccc4n3)CC2)cc1` (stereo not drawn) [compound 393] the same measures were 10 to 25 µM and above 100%.
Turning to `CC(c1nc2ccccc2c(=O)n1C)N1CCN(S(=O)(=O)c2cccc(C#N)c2)CC1` (stereo not drawn) [compound 279], the EC50 was in the range of 25 to 60 µM. For the setting “relative efficacy”, the Emax is below 25%.
For `CC(c1nc2ccc(Cl)cc2c(=O)n1C)N1CCN(C(=O)c2ccc(Cl)cc2)CC1` (stereo not drawn) [compound 40] the same measures were 10 to 25 µM and 25 to 100%.
For `Cc1ccc(S(=O)(=O)N2CCN(C(C)c3nc4ccc(Cl)cc4c(=O)n3C)CC2)cc1` (stereo not drawn) [compound 41] the same measures were 25 to 60 µM and below 25%.
For `CC(c1nc2ccccc2c(=O)[nH]1)N1CCN(S(=O)(=O)c2ccc(Br)cc2)CC1` (stereo not drawn) [compound 127] the same measures were 10 to 25 µM and 25 to 100%.
Turning to `COc1ccc(S(=O)(=O)N2CCN(C(C)c3nc(OC4CCOCC4)c4ccccc4n3)CC2)cc1` (stereo not drawn) [compound 300], the EC50 lay in the range of 25 to 60 µM. In addition, for the setting “relative efficacy”, the Emax was above 100%.
For `COCCn1c(C(C)N2CCN(S(=O)(=O)c3ccc(OC)cc3)CC2)nc2ccccc2c1=O` (stereo not drawn) [compound 4] the same measures were 10 to 25 µM and 25 to 100%.
For `CC(c1nc2ccc(S(C)(=O)=O)cc2c(=O)n1C)N1CCN(S(=O)(=O)c2ccc(Cl)cc2)CC1` (stereo not drawn) [compound 141], the EC50 was in the range of 10 to 25 µM. The Emax (relative efficacy) fell in the range of 25 to 100%.
Consider `COc1ccc(S(=O)(=O)N2CCN(C(C)c3nc(OCC4(C)COCOC4)c4ccccc4n3)CC2)cc1` (stereo not drawn) [compound 296], for which the EC50 was in the range of 10 to 25 µM. The Emax (relative efficacy) is above 100%.
As for `COc1ccc(S(=O)(=O)N2CCN(C(C)c3nc(N(C)CC4OCCO4)c4ccccc4n3)CC2)cc1` (stereo not drawn) [compound 395], the EC50 was 10 to 25 µM. Moreover, the Emax (relative efficacy) was in the range of 25 to 100%.
As to `CC(c1nc2ccccc2c(=O)n1C)N1CCN(S(=O)(=O)c2ccc(SC(F)(F)F)cc2)CC1` (stereo not drawn) [compound 352], the EC50 is below 10 µM. Where the note is “relative efficacy”, the Emax is 25 to 100%.
`CCn1c(C(C)N2CCN(S(=O)(=O)c3cccc4ccccc34)CC2)nc2ccc(Cl)cc2c1=O` (stereo not drawn) [compound 35]: the EC50 was below 10 µM. In addition, the Emax (relative efficacy) lay in the range of 25 to 100%.
For `COc1ccc(S(=O)(=O)N2CCC(NC(C)c3nc4ccccc4c(=O)n3C)CC2)cc1` (stereo not drawn) [compound 208] the same measures were 25 to 60 µM and 25 to 100%.
For `CC(c1nc2ccc(-c3nnn[nH]3)cc2c(=O)n1C)N1CCN(S(=O)(=O)c2ccc(Cl)cc2)CC1` (stereo not drawn) [compound 154] the same measures were 25 to 60 µM and above 100%.
For `COc1ccc(S(=O)(=O)N2CCN(C(C)c3nc(N4CCC(N5CCCCC5)CC4)c4ccccc4n3)CC2)cc1` (stereo not drawn) [compound 317] the same measures were 25 to 60 µM and below 25%.
Regarding `CC(c1nc(N2CCOCC2)c2ccccc2n1)N1CCN(S(=O)(=O)c2ccc(Cl)cc2)CC1` (stereo not drawn) [compound 236], the EC50 lay in the range of 25 to 60 µM. In addition, the Emax (relative efficacy) is 25 to 100%.
For `CCCC1CCN(c2nc(C(C)N3CCN(S(=O)(=O)c4ccc(OC)cc4)CC3)nc3ccccc23)CC1` (stereo not drawn) [compound 365] the same measures were below 10 µM and above 100%.
Turning to `COc1ccc(S(=O)(=O)N2CCN(C(C)c3nc(OC4CCCC4)c4ccccc4n3)CC2)cc1` (stereo not drawn) [compound 191], the EC50 is below 10 µM. Moreover, the “% Efficacy” value (relative efficacy) is listed as “+++ (“+++” means >100%)”.
In the case of `Cc1ccccc1C(=O)N1CCN(C(C)c2nc3ccccc3c(=O)n2C)CC1` (stereo not drawn) [compound 32], the EC50 was below 10 µM. Besides, where the note is “relative efficacy”, the Emax is below 25%.
As to `COc1ccc(S(=O)(=O)N2CCN(C(C)c3nc4ccc(-c5nnn[nH]5)cc4c(=O)n3C)CC2)cc1` (stereo not drawn) [compound 144], the EC50 lay in the range of 25 to 60 µM. Where the note is “relative efficacy”, the Emax was 25 to 100%.
For `COc1ccc(S(=O)(=O)N2CCC(C(C)c3nc4ccccc4c(=O)[nH]3)CC2)cc1` (stereo not drawn) [compound 405] the same measures were 10 to 25 µM and 25 to 100%.
Take `COc1ccc(S(=O)(=O)N2CCN(C(C)c3nc4ccc(OC)cc4c(=O)n3C)CC2)cc1` (stereo not drawn) [compound 135]: the EC50 was in the range of 10 to 25 µM. In addition, the Emax (relative efficacy) was in the range of 25 to 100%.
Take `CC(c1nc2ccccc2c(=O)n1C)N1CCN(S(=O)(=O)c2ccc(-c3ccccn3)s2)CC1` (stereo not drawn) [compound 281]: the EC50 was in the range of 25 to 60 µM. In addition, under “relative efficacy”, the Emax is below 25%.
`CC(c1nc2ccccc2c(=O)n1C)N(CCNS(=O)(=O)c1ccc(Cl)cc1)S(=O)(=O)c1ccc(Cl)cc1` (stereo not drawn) [compound 198]: the EC50 is 25 to 60 µM. Moreover, under “relative efficacy”, the Emax is below 25%.
For `COc1ccc(S(=O)(=O)N2CCN(C(C)c3nc(OC4CCCCC4)c4nccnc4n3)CC2)cc1` (stereo not drawn) [compound 396] the same measures were 10 to 25 µM and above 100%.
